In paper PMC2746095 (Biochemistry, 2009):
Where a chain is given by its changes, count along the chain named.

What was measured:
[1] = biological target: T1, R. etli pyruvate carboxylase (RePC) (Rhizobium etli, UniProt Q2K340, T882A); assay: bicarbonate-dependent ATPase, coupled Pi assay, partial inhibition fit; format: biochemical
T1 sequence (Q2K340 1-1154 T882A): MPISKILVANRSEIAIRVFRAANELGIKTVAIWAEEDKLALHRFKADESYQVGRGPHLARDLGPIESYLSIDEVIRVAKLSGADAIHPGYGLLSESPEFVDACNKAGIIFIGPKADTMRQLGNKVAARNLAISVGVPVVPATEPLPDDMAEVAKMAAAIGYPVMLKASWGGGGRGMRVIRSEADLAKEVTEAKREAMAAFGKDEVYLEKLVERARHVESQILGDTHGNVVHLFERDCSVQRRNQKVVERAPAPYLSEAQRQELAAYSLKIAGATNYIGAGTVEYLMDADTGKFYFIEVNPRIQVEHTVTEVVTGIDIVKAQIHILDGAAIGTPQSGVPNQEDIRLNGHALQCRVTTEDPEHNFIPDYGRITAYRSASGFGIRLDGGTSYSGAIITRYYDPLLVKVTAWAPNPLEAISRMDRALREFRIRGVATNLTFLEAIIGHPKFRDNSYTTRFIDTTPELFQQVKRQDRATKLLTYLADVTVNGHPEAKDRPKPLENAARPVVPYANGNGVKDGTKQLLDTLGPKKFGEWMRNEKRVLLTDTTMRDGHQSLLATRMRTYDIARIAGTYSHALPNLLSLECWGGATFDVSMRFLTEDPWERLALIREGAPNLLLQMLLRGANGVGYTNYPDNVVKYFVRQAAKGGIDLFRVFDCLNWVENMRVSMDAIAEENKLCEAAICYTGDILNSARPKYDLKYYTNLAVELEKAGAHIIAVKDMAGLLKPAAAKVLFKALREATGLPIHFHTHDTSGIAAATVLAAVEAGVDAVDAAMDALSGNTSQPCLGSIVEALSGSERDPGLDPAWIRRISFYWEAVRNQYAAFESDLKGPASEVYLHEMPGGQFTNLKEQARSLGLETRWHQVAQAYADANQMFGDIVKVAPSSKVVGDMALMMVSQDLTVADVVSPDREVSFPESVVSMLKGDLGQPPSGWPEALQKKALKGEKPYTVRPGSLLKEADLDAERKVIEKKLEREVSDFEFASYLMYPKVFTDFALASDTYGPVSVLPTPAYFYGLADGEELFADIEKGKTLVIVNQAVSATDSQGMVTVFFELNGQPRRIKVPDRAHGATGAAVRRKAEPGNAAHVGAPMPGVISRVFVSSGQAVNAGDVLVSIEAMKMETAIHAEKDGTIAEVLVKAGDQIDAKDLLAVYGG

[2] = biological target: T2, R. etli pyruvate carboxylase (RePC) (Rhizobium etli, UniProt Q2K340); assay: bicarbonate-dependent ATPase, coupled Pi assay, fit to substrate inhibition; format: biochemical; details: 0-20 mM pyruvate, text prints 10.2 ± 0.1 mM, 100 mM Tricine pH 7.5, 25 °C, 10 mM HCO3-, 2.5 mM MgATP, 2.5 mM MgCl2, 0.25 mM acetyl-CoA
T2 sequence (Q2K340 1-1154): T1 sequence (Q2K340 1-1154 T882A) with A882T

Structure (SMILES) | Ki [1] [µM] | Ki [2] [mM]
NC(=O)C(=O)O [oxamate] | 1000 ± 200 | 
CC(=O)C(=O)O [pyruvate] | 800 ± 100 | 10 ± 1
